Each structure is given as a SMILES string. Like-named read-outs stand apart in the source and are kept apart here.

The target of one assay is T1, PPAR gamma (Homo sapiens, UniProt P37231).
T1 construct: host or cells: engineered reporter cells of the kit (analogous to the human PPARα kit)
T1 sequence (P37231 1-505): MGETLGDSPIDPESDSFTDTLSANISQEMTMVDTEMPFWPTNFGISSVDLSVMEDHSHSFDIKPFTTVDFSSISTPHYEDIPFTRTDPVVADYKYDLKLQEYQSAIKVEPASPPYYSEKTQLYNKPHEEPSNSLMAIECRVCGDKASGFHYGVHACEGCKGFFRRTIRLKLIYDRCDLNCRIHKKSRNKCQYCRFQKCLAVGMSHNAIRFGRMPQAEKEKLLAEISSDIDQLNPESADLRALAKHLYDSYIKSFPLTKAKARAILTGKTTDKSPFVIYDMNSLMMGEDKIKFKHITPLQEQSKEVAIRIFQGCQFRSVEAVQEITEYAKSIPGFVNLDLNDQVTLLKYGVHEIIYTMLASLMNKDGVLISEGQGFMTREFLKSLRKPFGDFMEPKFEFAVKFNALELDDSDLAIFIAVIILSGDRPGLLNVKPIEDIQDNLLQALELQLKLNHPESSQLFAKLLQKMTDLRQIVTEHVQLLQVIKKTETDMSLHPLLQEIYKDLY
The assay is described as follows: Target selectivity counterscreen, PPAR γ reporter assay. The assay is classed as cell-based. Conditions: receptor agonist at ~EC80. How it is done: (§1) Target Selectivity Assays
(§2) To determine species selectivity, a Mouse PPARα Reporter Assay System was used (Indigo Biosciences, Cat. #M00111). Activity of test compounds to antagonize or agonize other isoforms of human PPAR, for example β/δ and γ, were assessed using the corresponding kits from Indigo Biosciences (Cat. #IB00121 and #IB00101, respectively). In addition to PPAR activity, compounds were also screened for activity against other nuclear hormone receptors including Estrogen Receptor β, Glucocorticoid Receptor and Thyroid Receptor β using commercially available kits (Indigo Biosciences, Cat. #IB00411, IB00201 and IB01101, respectively). Each assay system from Indigo Biosciences uses technology analogous to the human PPARα kit, with the variance being that the cells used for each assay were engineered to over-express the receptor of interest. In addition, the appropriate receptor agonist (included with each kit) was used at ˜EC80 for assays in which antagonist potency was being assessed.

In a further assay the test system is B16F10 melanoma cells. Description: In vivo cancer model: B16F10 model of pulmonary metastasis. Also noted: species or system C57BL/6 mice. Conditions: oral doses 0.3, 3 and 30 mg/kg daily, day 21, FIG. 1. The method, then:
In Vivo Cancer Model: B16F10 Model of Pulmonary Metastasis
B16F10 cells were cultured in standard growth media, harvested when approximately 50% confluent and injected into C57BL/6 mice via the tail vein (50,000 cells per mouse in 200 μL). Mice were treated daily with test compound. On day 21, mice were euthanized. Lungs were harvested and placed into Fekete's solution overnight to facilitate visualization of the tumors. Black nodules were enumerated.
Statistics were performed by ANOVA with Dunnett's Multiple Comparison Test post-hoc to determine statistical differences from vehicle treatment group. * denotes P<0.05, while *** denotes P<0.001.

For the next assay, the target named is T2, Thyroid Receptor β (Homo sapiens, UniProt P10828).
T2 construct: host or cells: engineered reporter cells of the kit
T2 sequence (P10828 1-461): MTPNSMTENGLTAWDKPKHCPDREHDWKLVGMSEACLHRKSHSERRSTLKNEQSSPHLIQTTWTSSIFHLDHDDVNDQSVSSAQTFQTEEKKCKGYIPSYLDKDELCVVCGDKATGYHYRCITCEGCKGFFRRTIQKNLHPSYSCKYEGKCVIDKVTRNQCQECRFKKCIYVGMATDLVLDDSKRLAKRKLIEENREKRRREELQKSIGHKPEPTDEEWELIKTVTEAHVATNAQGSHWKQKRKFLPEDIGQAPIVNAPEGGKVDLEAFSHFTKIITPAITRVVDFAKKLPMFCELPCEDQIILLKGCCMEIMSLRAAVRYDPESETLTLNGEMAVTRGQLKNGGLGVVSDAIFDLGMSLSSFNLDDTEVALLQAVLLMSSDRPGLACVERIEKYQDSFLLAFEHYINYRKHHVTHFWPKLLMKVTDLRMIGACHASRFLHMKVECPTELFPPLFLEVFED
Description: Target selectivity counterscreen, Thyroid Receptor β reporter assay. The assay is classed as cell-based. The conditions noted are these: receptor agonist at ~EC80. How it is done:
as §1, §2

Another assay addresses T3, Human PPARα (Homo sapiens, UniProt Q07869).
T3 construct: host or cells: proprietary non-human mammalian cells
T3 sequence (Q07869 1-468): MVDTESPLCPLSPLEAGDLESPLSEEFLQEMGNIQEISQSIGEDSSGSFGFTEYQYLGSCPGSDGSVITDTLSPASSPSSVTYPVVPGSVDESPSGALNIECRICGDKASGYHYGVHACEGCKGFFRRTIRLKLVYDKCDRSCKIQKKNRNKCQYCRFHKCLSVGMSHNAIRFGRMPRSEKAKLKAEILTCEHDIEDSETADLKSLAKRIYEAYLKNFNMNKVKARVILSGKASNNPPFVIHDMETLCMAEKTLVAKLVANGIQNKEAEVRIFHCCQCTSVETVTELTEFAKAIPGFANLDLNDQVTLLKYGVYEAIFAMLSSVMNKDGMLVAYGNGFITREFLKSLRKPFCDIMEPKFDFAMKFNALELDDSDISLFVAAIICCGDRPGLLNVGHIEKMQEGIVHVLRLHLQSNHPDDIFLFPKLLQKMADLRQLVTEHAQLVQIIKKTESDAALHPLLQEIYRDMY
Description: Human PPARα Reporter Assay (luciferase). The assay is classed as cell-based. The method, then: Human PPARα Reporter Assay
The screening of test compounds for agonist or antagonist activities against human PPARα receptors was performed using a commercial kit, Human PPARα Reporter Assay System (Indigo Biosciences, Cat. #IB00111).
This nuclear receptor assay system utilizes proprietary non-human mammalian cells engineered to provide constitutive, high-level expression of Human PPARα. Because these cells incorporate a PPARα-responsive luciferase reporter gene, quantifying expressed luciferase activity provides a sensitive surrogate measure of PPARα activity in the treated cells. The primary application of this reporter assay system is in the screening of test samples to quantify any functional activity, either agonist or antagonist, that they may exert against human PPARα. […] Briefly, the reporter cells are dispensed into wells of the assay plate and then immediately dosed with test compounds. Following an overnight incubation, the treatment media are discarded and Luciferase Detection Reagent (LDR) is added. The intensity of light emission from the ensuing luciferase reaction provides a sensitive measure that is directly proportional to the relative level of PPARα activation in the reporter cells.

On to `CCOc1ccc(-c2cccc(CCCc3nn(Cc4ccc(C(C)(C)C)cc4)c(=O)n3CC)c2)cc1CC(=O)O` [Example 6, 2-(3′-(3-(1-(4-(tert-Butyl)benzyl)-4-ethyl-5-oxo-4,5-dihydro-1H-1,2,4-triazol-3-yl)propyl)-4-ethoxy-[1,1′-biphenyl]-3-yl)acetic acid], for which the IC50 on PPAR gamma was 39.8 µM; at Thyroid Receptor β, 30.8 µM; at Human PPARα (antagonist activity, luciferase reporter cells, overnight incubation, read-out: Human PPARα Reporter Assay-Luciferase IC50), 0.058 µM; on Human PPARα (counterscreen assay results table, read-out: PPAR alpha IC50), 0.058 µM. For the same compound, the “metastasis of B16F10 melanoma cells to the lung (black nodules enumerated)” value with B16F10 melanoma cells is given as “inhibition of metastasis”.
